{"source": "patent US8158575B2", "about": "“Agent for the prevention and treatment of sexually transmitted diseases-I” (priority 2001, dated 2012)", "key": {"[1]": {"system": "HSV-2", "assay": "Genital HSV prevention test in the mouse model", "format": "in vivo", "experimental": "The efficacy of SPL-7013 was tested in a genital HSV prevention test in the mouse (strain MS) model. A dose of 15 μl of 100 mg/ml, or 10 mg/ml of the compound was instilled into the vagina of 16 animals 20 sec before HSV-2 infection. […] Total mortality in three days of the same number of control infected mice was used as an end-point of the tests."}, "[2]": {"system": "C. trachomatis", "assay": "C. trachomatis genital tract infection in mice", "format": "in vivo, mouse", "conditions": "15 μL of 100 mg/mL, −20 sec", "source_text": "Lower genital tract infection is defined by isolation of the organism by culture from vaginal swab samples collected on days 3 or 6 post challenge. For upper genital tract infection the definition is isolation of the organism by culture from the upper genital tract tissue harvested on day 10 post challenge. Phosphate buffer PBS treated mice were used as controls."}, "[3]": {"system": "PBMCs", "assay": "MTS cell viability in PBMC assay", "format": "cell-based, human", "source_text": "Human peripheral blood mononuclear cells from a minimum of 2 donors, that have been blasted with PHA and IL-2, were counted, viability determined by Trypan Blue dye exclusion and mixed in equal ratios. Pooled donors were used to minimize the variability observed between individual donors which results from quantitative and qualitative differences in HIV infection and overall response to the PHA and IL-2 of primary lymphocyte populations. The cells were resuspended at 1×10^6 cells/mL in RPMI 1640 without phenol red supplemented with 15% Fetal Bovine Serum (heat inactivated), 2 mM L-glutamine, 100 U/mL penicillin, 100 μg/mL streptomycin, 10 μg/mL gentamycin and IL-2 (20 U/mL, R&D Systems, Minneapolis, Minn.). Fifty microliters of cells were then distributed to the inner 60 wells of a 96 well round bottom microtiter culture plate in a standard format developed by the Infectious Disease Research department of Southern Research Institute. Each plate contains cell control wells (cells only), virus control wells (cells plus virus), and experimental wells (drug plus cells plus virus). Serially diluted compounds are added to the microtiter plate followed by the appropriate pre-titered strain of HIV-1 or SHIV-1. All samples were assayed in triplicate with a replicate plate without virus for the determination of compound toxicity. The final volume per well was 200 µL. The assay was incubated for 6 days in a humidified atmosphere at 37° C., 5% CO2, after which supernatants were collected, for analysis of RT activity and sister plates analyzed for cell viability by MTS dye reduction. Wells were also examined microscopically and any abnormalities noted.\nAt assay termination the assay plates were stained with the soluble tetrazolium-based dye MTS (CellTiter® Reagent Promega, Madison, Wis.) to determined cell viability and quantify compound toxicity. […] At termination of the PBMC assay 20 µL of MTS reagent was added per well, and the wells are incubated for 4 h at 37° C.\nAZT has been used as a relevant positive control compound for the individual assays."}, "[4]": {"target": "T1, cell-to-cell fusion mediated by HIV-1 Env and CD4 (Human immunodeficiency virus type 1 group M subtype B, UniProt P04578)", "T1 construct": "expressed in transfected cells; host or cells: HeLa CD4 LTR beta-gal cells (CD4) co-cultured with HL2/3 cells (HIV-1 Env)", "format": "cell-based", "conditions": "TC50/IC50", "experimental": "(§1) The fusion assay assesses the ability of compounds to block cell-to-cell fusion mediated by HIV-1 Env and CD4 expressed on separate cells. This assay is sensitive to inhibitors of both the gp120/CD4 interaction and inhibitors of the X4 coreceptor. First, 5×10^3 HeLa CD4 LTR […]-gal cells are placed in microtiter wells and incubated overnight. The following day the media is removed and the HeLa CD4 LTR […]-gal cells are incubated for 1 h at 37° C. in fresh media with test compound. Following the incubation 5×10^3 HL2/3 cells are added and the incubation continued for 40 to 48 h. At 40 to 48 h […]-galactosidase enzyme expression is detected by chemiluminescence (Tropix Gal-screen™, Tropix, Bedford, Mass.). Compound toxicity is monitored on a sister plate using XTT dye reduction."}, "[5]": {"system": "HIV-2 (ROD)", "assay": "Anti-retroviral activity in HIV-infected MT-4 cells (MTT)", "format": "cell-based", "conditions": "strain ROD (HIV-2)", "experimental": "(§2) The human immunodeficiency virus strains used were HIV-1 (IIIB)^1 and HIV-2 (ROD)^2. Anti-retroviral activity and cytotoxicity measurements were carried out in parallel. […] After the MT-4 cells were allowed to proliferate for 5 days, the number of viable cells was quantified by a tetrazolium-based calorimetric 3-(4,5-dimethylthiazol-2-yl)-2,5-diphenyltetrazolium bromide (MTT) procedure in 96-well microtrays.^3\n(§3) In all of these assays, viral input (viral multiplicity of infection, MOI) was 0.01, or 100 times the 50% cell culture infective dose (CCID50). […] Average EC50 and CC50 values for several separate experiments are presented as defined above. […] SI is the antiviral selectivity index CC50/EC50."}, "[6]": {"system": "HeLa CD4 LTR […]-gal cells", "assay": "XTT toxicity on sister plate of the fusion assay", "format": "cell-based", "experimental": "as §1"}, "[7]": {"system": "viral strains of Herpes virus-2 resistant to modified nucleoside based antiviral agents", "conditions": "cell tests"}, "[8]": {"system": "HIV-1 (IIIB)", "format": "cell-based", "conditions": "strain IIIB (HIV-1), MT-4 cells", "experimental": "as §2, §3"}, "[9]": {"conditions": "100 mg/ml intravaginal, 20 sec. prior to infection"}}, "note": "Several values for one entry are separate records, joined by “and”; a condition that tells them apart may be missing. Equal values may be shown once. Marks after values point to notes of the source that are not given here."}
{"substance": "BHAlyslys2lys4lys8lys16[NH—CO—CH2)O-3,6-Naphthyl-(SO3Na)2]32 [SPL-7013]", "values": [{"measurement": "Animals Protected Against Infection (%)", "setting": "[1]; 10 mg/ml intravaginal, 20 sec. prior to infection", "result": "10/12 (83%)"}, {"measurement": "Animals Protected Against Disease (%)", "setting": "[1]; [9]", "result": "11/11 (100%) and 12/12 (100%)"}, {"measurement": "Animals Protected Against Infection (%)", "setting": "[1]; [9]", "result": "11/11 (100% and 12/12 (100%"}, {"measurement": "Prevention of HSV-2 infection and disease (in words)", "setting": "[1]; 15 μl of 100 mg/ml or 10 mg/ml intravaginal 20 sec before HSV-2 infection", "result": "prevented infection and disease in all animals tested"}, {"measurement": "Animals Protected Against Infection, Lower Tract (%)", "setting": "[2]; Group 1, mouse", "result": "(50%)^a"}, {"measurement": "Animals Protected Against Infection, Lower Tract (number)", "setting": "[2]; Group 1, mouse", "result": 8}, {"measurement": "Animals Protected Against Infection, Upper Tract (%)", "setting": "[2]; Group 1, mouse", "result": "(50%)"}, {"measurement": "Animals Protected Against Infection, Upper Tract (number)", "setting": "[2]; Group 1, mouse", "result": 8}, {"measurement": "Animals Protected Against Infection, Lower Tract (%)", "setting": "[2]; Group 2, mouse", "result": "(38%)"}, {"measurement": "Animals Protected Against Infection, Lower Tract (number)", "setting": "[2]; Group 2, mouse", "result": 6}, {"measurement": "Animals Protected Against Infection, Upper Tract (%)", "setting": "[2]; Group 2, mouse", "result": "(50%)^a"}, {"measurement": "Animals Protected Against Infection, Upper Tract (number)", "setting": "[2]; Group 2, mouse", "result": 8}, {"measurement": "HIV-1 RoJo Infected PBMCs TC50", "setting": "[3]; plate of the HIV-1 RoJo test", "result": ">100", "unit": "µg/mL"}, {"measurement": "SHIV 89.6pd Infected PBMCs TC50", "setting": "[3]; plate of the SHIV 89.6pd test", "result": ">100", "unit": "µg/mL"}, {"measurement": "Fusion Assay TI", "setting": "[4]", "result": ">141"}, {"measurement": "EC90", "setting": "[5]", "result": 4.86, "unit": "µg/mL"}, {"measurement": "EC50", "setting": "[5]; 5 days", "result": 3.26, "unit": "µg/mL"}, {"measurement": "Fusion Assay TC50", "setting": "[6]", "result": ">100", "unit": "µg/mL"}, {"measurement": "Activity against resistant Herpes virus-2 strains (in words)", "setting": "[7]", "result": "shown activity"}, {"measurement": "EC90", "setting": "[8]", "result": 0.954, "unit": "µg/mL"}, {"measurement": "EC50", "setting": "[8]; 5 days", "result": 0.45, "unit": "µg/mL"}]}
